Laboratory results from patent US20090286836A1, “Novel Compounds” (priority 2008, published 2009).
Structures can show the parent of a compound that is named as a salt.

Legend:
human NK3 receptor = target: T1, human NK3 receptor (Homo sapiens, UniProt P29371); assay: NK functional potency, FLIPR calcium release in U2OS cells (NKB as ligand); assay type: cell-based; details: BacMam human NK3, average of at least two determinations, read-out: NK3 pKi (functional potency, fpKi) (converted)
T1 construct: expressed in transfected cells; host or cells: human U2OS cells transiently transduced with recombinant BacMam virus
T1 sequence (P29371 1-465): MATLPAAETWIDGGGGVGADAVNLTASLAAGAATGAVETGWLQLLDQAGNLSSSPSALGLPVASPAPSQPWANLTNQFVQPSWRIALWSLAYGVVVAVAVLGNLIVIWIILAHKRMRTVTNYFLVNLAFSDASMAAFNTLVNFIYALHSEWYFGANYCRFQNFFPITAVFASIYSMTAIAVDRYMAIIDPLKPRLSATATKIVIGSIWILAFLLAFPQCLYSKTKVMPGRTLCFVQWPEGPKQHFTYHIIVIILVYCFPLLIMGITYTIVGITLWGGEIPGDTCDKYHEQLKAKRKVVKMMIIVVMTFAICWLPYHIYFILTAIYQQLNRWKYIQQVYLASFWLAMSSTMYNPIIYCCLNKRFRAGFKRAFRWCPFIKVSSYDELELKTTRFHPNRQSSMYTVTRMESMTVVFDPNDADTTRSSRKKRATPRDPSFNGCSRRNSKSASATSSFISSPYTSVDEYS
Description: (§1) Compounds of the invention were further characterised in a functional assay using FLIPR technology for the determination of their effect to inhibit the intracellular calcium release induced by interaction of NK receptors with its perspective ligands. Human U2OS cells transiently transduced with recombinant BacMam virus expressing human NK1, NK2 and NK3 receptors were used in the studies (see J. P. Condreay et al, Proc. Natl. Acad. Sci. USA 1999, 96(1): 127-132). Briefly, U2OS cells were harvested from tissue culture flasks, re-suspended to a cell density of 200-300K/ml and mixed with recombinant BacMam virus carrying NKR gene in a virus/cell ratio of 1% (v/v). 10K-15K cells/well were then seeded in 384-well Greiner bio-one plate in culture medium (DMEM with 10% FBS), incubated overnight in 5% CO2 at 37° C. After aspirating the medium, cells were loaded 18-24 hr later with cytoplasmic calcium indicator Fluo-4 Calcium 3 dye (Molecular Devices Co.) in 30 uL/well buffer (Hank's balanced salts with 20 mM Hepes) and incubated in CO2 at 37° C. for 60 minutes. 10 uL/well assay buffer (Hank's balanced salts with 20 mM Hepes) containing different concentrations of compounds were then added to the cells for 30 minutes incubation at 37° C. Finally, 10 uL/well of NKR ligands in assay buffer containing 0.1% BSA was added to the cells and fluorescence signal read on a FLIPR system. Substance P, NKA and NKB peptides were used as the ligands for NK1, NK2 and NK3 receptor, respectively. IC50 values of each compound were determined by an 11-point 3×-dilution inhibition curve. The potency each antagonist (fpKi) was calculated from pIC50 by the Cheng-Prusoff equation using EC50 of ligand determined in a separate experiment.
(§2) The compounds of Example 11, Examples 2, 4 and 6 were tested in the NK functional potency assay.

human NK1 receptor [1] = target: T2, human NK1 receptor (Homo sapiens, UniProt P25103); assay: NK functional potency, FLIPR calcium release in U2OS cells (Substance P as ligand); assay type: cell-based; parameters: expressed in transfected cells; host or cells: human U2OS cells transiently transduced with recombinant BacMam virus; details: BacMam human NK1, average of at least two determinations, read-out: NK1 pKi (functional potency, fpKi) (converted)
Description: as §1, §2

human NK2 receptor = target: T3, human NK2 receptor (Homo sapiens, UniProt P21452); assay: NK functional potency, FLIPR calcium release in U2OS cells (NKA as ligand); assay type: cell-based; details: BacMam human NK2, average of at least two determinations, read-out: NK2 pKi (functional potency, fpKi) (converted)
T3 construct: expressed in transfected cells; host or cells: human U2OS cells transiently transduced with recombinant BacMam virus
T3 sequence (P21452 1-398): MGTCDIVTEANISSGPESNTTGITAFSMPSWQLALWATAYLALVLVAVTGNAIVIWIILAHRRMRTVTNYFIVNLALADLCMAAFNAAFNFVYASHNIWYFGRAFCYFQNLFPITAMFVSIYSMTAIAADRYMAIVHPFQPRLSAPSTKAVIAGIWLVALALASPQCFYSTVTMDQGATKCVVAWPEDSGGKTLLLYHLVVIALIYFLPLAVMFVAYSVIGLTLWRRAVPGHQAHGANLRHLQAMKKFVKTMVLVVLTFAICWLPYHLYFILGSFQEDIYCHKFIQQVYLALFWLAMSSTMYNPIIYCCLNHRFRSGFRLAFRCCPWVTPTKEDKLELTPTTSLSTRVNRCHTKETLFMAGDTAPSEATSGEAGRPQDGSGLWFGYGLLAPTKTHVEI
Description: as §1, with “After aspirating the medium, cells were loaded 18-24 hr later with cytoplasmic calcium indicator Fluo-4 Calcium 3 dye (Molecular Devices Co.) in 30 uL/well buffer (Hank's balanced salts with 20 mM Hepes) and incubated in CO2 at 37° C. for 60 minutes. 10 uL/well assay buffer (Hank's balanced salts with 20 mM Hepes) containing different concentrations of compounds were then added to the cells for 30 minutes incubation at 37° C.” left out, “Substance P, NKA and NKB peptides were used as the ligands for NK1, NK2 and NK3 receptor, respectively.” left out, “experiment. […]” for “experiment.”

NK1 receptor = target: T4, NK1 receptor (Meriones unguiculatus, UniProt Q5DUB1); assay: gerbil foot tapping model (GR73632-induced, icv); assay type: in vivo
T4 construct: from tissue; host or cells: living gerbils; central nervous system (icv agonist GR73632)
Description: The ability of the compounds of the invention to penetrate the central nervous system and to bind at the NK1 receptor may be determined using the gerbil foot tapping model as described by Rupniak & Williams, Eur. Jour. of Pharmacol., 1994. Intracerebroventricular (icv) administration of the NK1 receptor agonist GR73632 (R. M. Hagan et al., Neuropeptides 1991, 19 (2), 127-135) a characteristic hind leg foot tapping (GFT) response in gerbils which can be inhibited by potent NK1 receptor antagonists. The gerbil foot tapping paradigm was carried out as follows; gerbils were dosed with compound of the invention, and following an appropriate pre-treatment time were anaesthetised using isofluorane/oxygen mixture. The skull was then exposed and 5 ul of GR73632 ([…].) was injected by insertion of a cuffed 25G needle to a depth of 4 mm below bregma, directly into the lateral ventricle (intracerebroventricular dosing). Immediately following the injection, gerbils were placed individually into a clear observation box to recover.
Upon the gerbil regaining its righting reflex, the duration of repetitive hind foot tapping was recorded over a 5 minute period. The dose of the test compound required to inhibit by 50% the tapping induced by the NK1 agonist expressed as mg/kg is referred to as the ID50 values.

common marmosets = assay: marmoset human threat test; assay type: in vivo, common marmoset; details: for No. jumps / No. postures: marmoset, oral, 1 h before test; for No. jumps: mean±SEM (n=4), index of locomotor activity; for No. postures: mean±SEM (n=7)
Protocol: For example the marmoset human threat test (Costall et al., 1988
The study utilised in house laboratory-bred male and female common marmosets over 2 years of age, weighing 300-500 g. The animals were caged in couples, in a housing room maintained at 25±1° C., 60% humidity and a 12 hour light/dark cycle (lights on at 0600, with 30 min simulated dawn and twilight). Testing was carried out with the animals situated in the home cage.
One hour before the test animals were treated orally with vehicle (0.5% HPMC) or test compound (1 ml/kg). After a wash-out period of at least three days, treatments were reassigned and the study was complete when all animals had received all treatments. Number of specific behavioural postures in response to the human threat and the number of jumps were analysed in this study. The postures recorded in the test were those described by Costall et al (1988). and the number of jumps from the back of the cage to the cage front provided an index of locomotor activity to assess potential for sedation or locomotor stimulation.
Results are expressed as mean±SEM (n=7). of number of postures and as a mean±SEM (n=4) of number of jumps. Data were subjected to one-way analysis of variance (ANOVA) followed by Dunnett's test, comparing each compound dose with vehicle treatment, using Statistica software (version 8.0) Statistically significant differences with respect to vehicle are indicated as *P<0.01.

human NK1 receptor [2] = target: T2, human NK1 receptor; assay: NK1 filtration binding assay with [3H]-GR205171 on human NK1-CHO cell membranes; parameters: expressed in transfected cells; details: average of five independent experiments, [3H]-GR205171 radioligand, read-out: NK1 binding affinity pKi (converted)
Protocol: The NK1 binding affinity of the compounds of the invention was determined using the following filtration binding assay using [^3H]-GR205171 as radioligand for human NK1 receptor stably expressed in CHO (Chinese Hamster Ovary) cells (see C. Griffante et al, Br. J. Pharmacol. 2006, 148, 39-45; H. M. Sarau et al, J. Pharmacol. Experimental Therapeutics 2000, 295(1), 373-381 and D. T. Beattie et al., Br. J. Pharmacol. 1995, 116, 3149-3157).
CHO cells stably expressing the human cloned neurokinin NK1 receptor were cultured in Dulbecco's Modified Eagle's Medium/F12 Ham (DMEM/F12Ham) supplemented with 10% foetal bovine serum and 2 mM L-glutamine. Cells were maintained in 5% CO2 in a humidified incubator at 37° C. […]
Binding assay was carried out in 96 deep well polypropylene plates (Whatman) in a volume of 400 μl consisted of 100 μl of incubation buffer (containing 50 mM HEPES, pH 7.4, 3 mM MnCl2, and 0.02% BSA), 4 μl of DMSO (total binding) or increasing concentrations of the compounds in the invention dissolved in DMSO (1 pM-1 μM final concentration), 100 μl of the radioligand [^3H]-GR205171 (0.2 nM final concentration) in incubation buffer and 200 μl of human NK1-CHO cell membranes suspension (4 μg/ml final) in incubation buffer. […] Filterplates were dried and retained radioactivity was counted in a Top Count (Perkin-Elmer). […]

T4 sequence (Q5DUB1 whole entry): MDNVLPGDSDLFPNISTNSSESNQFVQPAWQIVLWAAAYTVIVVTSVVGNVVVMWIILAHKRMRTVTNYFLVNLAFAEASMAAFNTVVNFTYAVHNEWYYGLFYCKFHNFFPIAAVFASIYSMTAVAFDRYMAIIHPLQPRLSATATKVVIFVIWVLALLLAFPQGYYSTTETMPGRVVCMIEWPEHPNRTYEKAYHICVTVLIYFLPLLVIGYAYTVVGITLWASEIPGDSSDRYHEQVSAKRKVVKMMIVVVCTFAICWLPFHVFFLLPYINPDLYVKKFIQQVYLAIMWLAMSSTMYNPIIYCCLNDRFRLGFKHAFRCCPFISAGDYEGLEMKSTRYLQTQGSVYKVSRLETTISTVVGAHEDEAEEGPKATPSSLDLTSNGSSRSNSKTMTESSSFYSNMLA
T2 sequence (P25103 whole entry): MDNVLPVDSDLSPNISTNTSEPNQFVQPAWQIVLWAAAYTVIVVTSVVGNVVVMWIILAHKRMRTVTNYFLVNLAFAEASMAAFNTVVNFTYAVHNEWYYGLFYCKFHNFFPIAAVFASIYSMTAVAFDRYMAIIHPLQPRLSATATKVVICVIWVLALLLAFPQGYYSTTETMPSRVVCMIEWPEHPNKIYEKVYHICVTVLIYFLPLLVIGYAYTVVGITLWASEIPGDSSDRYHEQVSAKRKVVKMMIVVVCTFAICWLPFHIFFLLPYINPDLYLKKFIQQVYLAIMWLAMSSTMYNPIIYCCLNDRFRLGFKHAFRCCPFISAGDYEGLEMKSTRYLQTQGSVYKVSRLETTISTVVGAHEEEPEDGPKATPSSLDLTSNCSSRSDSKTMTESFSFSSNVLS

| Structure (SMILES) | Ki (human NK3 receptor) | Ki (human NK1 receptor [1]) | Ki (human NK2 receptor) | GR73632-induced Foot Tapping behaviour (NK1 receptor; gerbil, 0.3, 1.0 and 3.0 mg/kg p.o (P<0.01)) | ID50 as plasma concentration (NK1 receptor; gerbil, p.o., GR73632 icv) | ED50 (NK1 receptor; po, gerbil, p.o., GR73632 icv, read-out: ID50, dose inhibiting by 50% the foot tapping induced by the NK1 agonist) | effect on number of postures (anxiolytic effect) (common marmosets; marmoset, 0.1, 0.3 or 1 mg/kg oral, significant at 0.3 and 1 mg/kg (P<0.01), no reduction in number of jumps) | No. jumps (common marmosets; 0.1 mg/kg) | No. postures (common marmosets; 0.1 mg/kg) | No. jumps (common marmosets; 0.3 mg/kg) | No. postures (common marmosets; 0.3 mg/kg, *P<0.01 vs vehicle) | No. jumps (common marmosets; 1 mg/kg) | No. postures (common marmosets; 1 mg/kg, *P<0.01 vs vehicle) | Ki (human NK1 receptor [2]) |
| --- | --- | --- | --- | --- | --- | --- | --- | --- | --- | --- | --- | --- | --- | --- |
| Cc1cc(F)ccc1-c1cc([C@H]2CC[C@](C)(C(N)=O)N2)ncc1N(C)C(=O)C(C)(C)c1cc(C(F)(F)F)cc(C(F)(F)F)c1 [Example 2, (5R)-5-[5-[{2-[3,5-bis(trifluoromethyl)phenyl]-2-methylpropanoyl}(methyl)amino]-4-(4-fluoro-2-methylphenyl)-2-pyridinyl]-2-methyl-D-prolinamide hydrochloride] | 79.4 nM | < 0.17 nM |  |  |  |  |  |  |  |  |  |  |  |  |
| Cc1cc(F)ccc1-c1cc([C@@H]2CC[C@](C)(C(N)=O)N2)ncc1N(C)C(=O)C(C)(C)c1cc(C(F)(F)F)cc(C(F)(F)F)c1 [Example 6, (5S)-5-[5-[{2-[3,5-bis(trifluoromethyl)phenyl]-2-methylpropanoyl}(methyl)amino]-4-(4-fluoro-2-methylphenyl)-2-pyridinyl]-2-methyl-D-prolinamide hydrochloride] | 158 nM | < 0.17 nM |  |  |  |  |  |  |  |  |  |  |  |  |
| Cc1cc(F)ccc1-c1cc([C@H]2CC[C@](C)(C(N)=O)N2)ncc1N(C)C(=O)C(C)(C)c1cc(C(F)(F)F)cc(C(F)(F)F)c1 [Example 11, (5R)-5-[5-[{2-[3,5-bis(trifluoromethyl)phenyl]-2-methylpropanoyl}(methyl)amino]-4-(4-fluoro-2-methylphenyl)-2-pyridinyl]-2-methyl-D-prolinamide bis-hydrochloride] | 31.6 nM | 0.0794 nM | > 1000 nM | significantly attenuated | approximately 5 ng/ml plasma | ~0.2 mg/kg | dose dependent reduction in the number of postures | 20.1 ± 2.1 | 9.4 ± 1.0 | 13.4 ± 2.5 | *6.3 ± 0.9 | 13.0 ± 2.1 | *4.0 ± 0.4 | 0.132 nM |
| Cc1cc(F)ccc1-c1cc([C@H]2CC[C@@](C)(C(N)=O)N2)ncc1N(C)C(=O)C(C)(C)c1cc(C(F)(F)F)cc(C(F)(F)F)c1 [Example 4, (5R)-5-[5-[{2-[3,5-bis(trifluoromethyl)phenyl]-2-methylpropanoyl}(methyl)amino]-4-(4-fluoro-2-methylphenyl)-2-pyridinyl]-2-methyl-L-prolinamide hydrochloride] | 63.1 nM | < 0.17 nM |  |  |  |  |  |  |  |  |  |  |  |  |
